Values belong to the compound of their own block, whether it stands above or below them.
Assays:
[1] = Dynamic vapor sorption (DVS) hygroscopicity testing; format: physicochemical; details: for desorption process of the sample versus its adsorption process: humidity changing from 0% to 95% RH
Description: According to the description of hygroscopicity characteristics and the definitions of hygroscopic weight gains in "General Rule 9103, Guidelines for Hygroscopicity Trials for Pharmaceuticals" in the Chinese Pharmacopoeia, Volume IV, 2015 Edition, • deliquescent: sufficient water is absorbed to form a liquid; • extremely hygroscopic: the hygroscopic weight gain is not less than 15%; • hygroscopic: the hygroscopic weight gain is less than 15% but not less than 2%; • slightly hygroscopic: the hygroscopic weight gain is less than 2% but not less than 0.2%; nonhygroscopic or practically nonhygroscopic: the hygroscopic weight gain is less than 0.2%.
DVS refers to dynamic vapor sorption: The analysis was performed using SMS DVS Advantage; at 25 °C, the humidity was changed as follows: 50%-95%-0%-95%-50%, in steps of 10% (5% for the last step) (specific humidity ranges are shown in corresponding patterns, and those listed here were used in most cases); the criterion was dm/dt being not greater than 0.002%.

[2] = Influencing factor stability study on crystal forms (light, high temperature, high humidity, 30 days); format: physicochemical
[3] = accelerated experimental conditions (70% RH)
[4] = normal storage conditions (25 °C and 60% RH)
[5] = Light exposure (4500 Lux), 5 days
[6] = Light exposure (4500 Lux), 10 days
[7] = Light exposure (4500 Lux), 30 days
[8] = Light exposure (4500 Lux), 7 days
[9] = Light exposure (4500 Lux), 14 days

- hygroscopic weight gain [1, 3]: about 6.44%
- crystal form re-identified after DVS testing [1]: did not change
- hygroscopic weight gain ([1]; extreme conditions (90% RH)): about 6.65%
- desorption process of the sample versus its adsorption process [1]: did not overlap
- hygroscopic weight gain [1, 4]: about 6.35%
- Color and state ([2]; 40 °C, 5 days): Off-white solid
- Crystal form ([2]; 40 °C, 5 days): Did not change
- Purity (%) ([2]; 40 °C, 5 days): 97.8%
- Color and state ([2]; 40 °C, 10 days): Off-white solid
- Crystal form ([2]; 40 °C, 10 days): Did not change
- Purity (%) ([2]; 40 °C, 10 days): 97.5%
- Color and state ([2]; 40 °C, 30 days): Off-white solid
- Crystal form ([2]; 40 °C, 30 days): Did not change
- Purity (%) ([2]; 40 °C, 30 days): 96.7%
- Color and state ([2]; 60 °C, 5 days): Off-white solid
- Crystal form ([2]; 60 °C, 5 days): Did not change
- Purity (%) ([2]; 60 °C, 5 days): 97.8%
- Color and state ([2]; 60 °C, 10 days): Off-white solid
- Crystal form ([2]; 60 °C, 10 days): Did not change
- Purity (%) ([2]; 60 °C, 10 days): 97.7%
- Color and state ([2]; 60 °C, 30 days): Off-white solid
- Crystal form ([2]; 60 °C, 30 days): Did not change
- Purity (%) ([2]; 60 °C, 30 days): 97.3%
- Color and state ([2]; 75% RH, 5 days): Off-white solid
- Crystal form ([2]; 75% RH, 5 days): Did not change
- Purity (%) ([2]; 75% RH, 5 days): 97.9%
- Color and state ([2]; 75% RH, 10 days): Off-white solid
- Crystal form ([2]; 75% RH, 10 days): Did not change
- Purity (%) ([2]; 75% RH, 10 days): 97.9%
- Color and state ([2]; 75% RH, 30 days): Off-white solid
- Crystal form ([2]; 75% RH, 30 days): Did not change
- Purity (%) ([2]; 75% RH, 30 days): 97.9%
- Color and state ([2]; 92.5% RH, 5 days): Off-white solid
- Crystal form ([2]; 92.5% RH, 5 days): Did not change
- Purity (%) ([2]; 92.5% RH, 5 days): 97.9%
- Color and state ([2]; 92.5% RH, 10 days): Off-white solid
- Crystal form ([2]; 92.5% RH, 10 days): Did not change
- Purity (%) ([2]; 92.5% RH, 10 days): 97.9%
- Color and state ([2]; 92.5% RH, 30 days): Off-white solid
- Crystal form ([2]; 92.5% RH, 30 days): Did not change
- Purity (%) ([2]; 92.5% RH, 30 days): 97.9%
- Color and state ([2]; Initial, 0 days): Off-white solid
- Crystal form ([2]; Initial, 0 days): Crystal form F
- Purity (%) ([2]; Initial, 0 days): 97.9%
- Color and state [2, 5]: Off-white solid
- Crystal form [2, 5]: Did not change
- Purity (%) [2, 5]: 97.8%
- Color and state [2, 6]: Off-white solid
- Crystal form [2, 6]: Did not change
- Purity (%) [2, 6]: 97.8%
- Color and state [2, 7]: Off-white solid
- Crystal form [2, 7]: Did not change
- Purity (%) [2, 7]: 97.7%
SMILES: C=CC(=O)N1CCN2C(=O)c3cc(F)c(-c4ccc(F)c5sc(N)c(C#N)c45)c4c(Cl)nn(c34)CC[C@H]2C1 [crystal form F]

- hygroscopic weight gain [1, 3]: about 1.21%
- crystal form re-identified after DVS testing [1]: did not change
- hygroscopic weight gain ([1]; extreme conditions (90% RH)): about 1.60%
- desorption process of the sample versus its adsorption process [1]: substantially overlapped
- hygroscopic weight gain [1, 4]: about 1.04%
- Color and state ([2]; 40 °C, 7 days): Off-white solid
- Crystal form ([2]; 40 °C, 7 days): Did not change
- Purity (%) ([2]; 40 °C, 7 days): 98.2%
- Color and state ([2]; 40 °C, 14 days): Off-white solid
- Crystal form ([2]; 40 °C, 14 days): Did not change
- Purity (%) ([2]; 40 °C, 14 days): 97.8%
- Color and state ([2]; 40 °C, 30 days): Off-white solid
- Crystal form ([2]; 40 °C, 30 days): Did not change
- Purity (%) ([2]; 40 °C, 30 days): 97.7%
- Color and state ([2]; 60 °C, 7 days): Off-white solid
- Crystal form ([2]; 60 °C, 7 days): Did not change
- Purity (%) ([2]; 60 °C, 7 days): 98.3%
- Color and state ([2]; 60 °C, 14 days): Off-white solid
- Crystal form ([2]; 60 °C, 14 days): Did not change
- Purity (%) ([2]; 60 °C, 14 days): 98.1%
- Color and state ([2]; 60 °C, 30 days): Off-white solid
- Crystal form ([2]; 60 °C, 30 days): Did not change
- Purity (%) ([2]; 60 °C, 30 days): 98.1%
- Color and state ([2]; 75% RH, 7 days): Off-white solid
- Crystal form ([2]; 75% RH, 7 days): Did not change
- Purity (%) ([2]; 75% RH, 7 days): 98.5%
- Color and state ([2]; 75% RH, 14 days): Off-white solid
- Crystal form ([2]; 75% RH, 14 days): Did not change
- Purity (%) ([2]; 75% RH, 14 days): 98.5%
- Color and state ([2]; 75% RH, 30 days): Off-white solid
- Crystal form ([2]; 75% RH, 30 days): Did not change
- Purity (%) ([2]; 75% RH, 30 days): 98.5%
- Color and state ([2]; 92.5% RH, 7 days): Off-white solid
- Crystal form ([2]; 92.5% RH, 7 days): Did not change
- Purity (%) ([2]; 92.5% RH, 7 days): 98.5%
- Color and state ([2]; 92.5% RH, 14 days): Off-white solid
- Crystal form ([2]; 92.5% RH, 14 days): Did not change
- Purity (%) ([2]; 92.5% RH, 14 days): 98.5%
- Color and state ([2]; 92.5% RH, 30 days): Off-white solid
- Crystal form ([2]; 92.5% RH, 30 days): Did not change
- Purity (%) ([2]; 92.5% RH, 30 days): 98.5%
- Color and state ([2]; Initial, 0 days): Off-white solid
- Crystal form ([2]; Initial, 0 days): Crystal form G
- Purity (%) ([2]; Initial, 0 days): 98.5%
- Color and state [2, 8]: Off-white solid
- Crystal form [2, 8]: Did not change
- Purity (%) [2, 8]: 98.5%
- Color and state [2, 9]: Off-white solid
- Crystal form [2, 9]: Did not change
- Purity (%) [2, 9]: 98.4%
- Color and state [2, 7]: Off-white solid
- Crystal form [2, 7]: Did not change
- Purity (%) [2, 7]: 98.3%
SMILES: C=CC(=O)N1CCN2C(=O)c3cc(F)c(-c4ccc(F)c5sc(N)c(C#N)c45)c4c(Cl)nn(c34)CC[C@H]2C1 [crystal form G]

- hygroscopic weight gain [1, 3]: about 0.55%
- crystal form re-identified after DVS testing [1]: did not change
- hygroscopic weight gain ([1]; extreme conditions (90% RH)): about 0.73%
- desorption process of the sample versus its adsorption process [1]: substantially overlapped
- hygroscopic weight gain [1, 4]: about 0.48%
- Color and state ([2]; 40 °C, 7 days): Off-white solid
- Crystal form ([2]; 40 °C, 7 days): Did not change
- Purity (%) ([2]; 40 °C, 7 days): 99.1%
- Color and state ([2]; 40 °C, 14 days): Off-white solid
- Crystal form ([2]; 40 °C, 14 days): Did not change
- Purity (%) ([2]; 40 °C, 14 days): 99.1%
- Color and state ([2]; 40 °C, 30 days): Off-white solid
- Crystal form ([2]; 40 °C, 30 days): Did not change
- Purity (%) ([2]; 40 °C, 30 days): 98.9%
- Color and state ([2]; 60 °C, 7 days): Off-white solid
- Crystal form ([2]; 60 °C, 7 days): Did not change
- Purity (%) ([2]; 60 °C, 7 days): 99.1%
- Color and state ([2]; 60 °C, 14 days): Off-white solid
- Crystal form ([2]; 60 °C, 14 days): Did not change
- Purity (%) ([2]; 60 °C, 14 days): 99.1%
- Color and state ([2]; 60 °C, 30 days): Off-white solid
- Crystal form ([2]; 60 °C, 30 days): Did not change
- Purity (%) ([2]; 60 °C, 30 days): 99.0%
- Color and state ([2]; 75% RH, 7 days): Off-white solid
- Crystal form ([2]; 75% RH, 7 days): Did not change
- Purity (%) ([2]; 75% RH, 7 days): 99.2%
- Color and state ([2]; 75% RH, 14 days): Off-white solid
- Crystal form ([2]; 75% RH, 14 days): Did not change
- Purity (%) ([2]; 75% RH, 14 days): 99.2%
- Color and state ([2]; 75% RH, 30 days): Off-white solid
- Crystal form ([2]; 75% RH, 30 days): Did not change
- Purity (%) ([2]; 75% RH, 30 days): 99.2%
- Color and state ([2]; 92.5% RH, 7 days): Off-white solid
- Crystal form ([2]; 92.5% RH, 7 days): Did not change
- Purity (%) ([2]; 92.5% RH, 7 days): 99.2%
- Color and state ([2]; 92.5% RH, 14 days): Off-white solid
- Crystal form ([2]; 92.5% RH, 14 days): Did not change
- Purity (%) ([2]; 92.5% RH, 14 days): 99.2%
- Color and state ([2]; 92.5% RH, 30 days): Off-white solid
- Crystal form ([2]; 92.5% RH, 30 days): Did not change
- Purity (%) ([2]; 92.5% RH, 30 days): 99.2%
- Color and state ([2]; Initial, 0 days): Off-white solid
- Crystal form ([2]; Initial, 0 days): Crystal form M
- Purity (%) ([2]; Initial, 0 days): 99.2%
- Color and state [2, 8]: Off-white solid
- Crystal form [2, 8]: Did not change
- Purity (%) [2, 8]: 99.2%
- Color and state [2, 9]: Off-white solid
- Crystal form [2, 9]: Did not change
- Purity (%) [2, 9]: 99.2%
- Color and state [2, 7]: Off-white solid
- Crystal form [2, 7]: Did not change
- Purity (%) [2, 7]: 99.0%
SMILES: C=CC(=O)N1CCN2C(=O)c3cc(F)c(-c4ccc(F)c5sc(N)c(C#N)c45)c4c(Cl)nn(c34)CC[C@H]2C1 [crystal form M]

- hygroscopic weight gain [1, 3]: about 3.06%
- crystal form re-identified after DVS testing [1]: did not change
- hygroscopic weight gain ([1]; extreme conditions (90% RH)): about 3.18%
- desorption process of the sample versus its adsorption process [1]: substantially overlapped
- hygroscopic weight gain [1, 4]: about 3.00%
- Color and state ([2]; 60 °C, 30 days): Off-white solid
- Crystal form ([2]; 60 °C, 30 days): Did not change
- Purity (%) ([2]; 60 °C, 30 days): 98.9%
- Color and state ([2]; 75% RH, 7 days): Off-white solid
- Crystal form ([2]; 75% RH, 7 days): Did not change
- Purity (%) ([2]; 75% RH, 7 days): 99.2%
- Color and state ([2]; 75% RH, 14 days): Off-white solid
- Crystal form ([2]; 75% RH, 14 days): Did not change
- Purity (%) ([2]; 75% RH, 14 days): 99.1%
- Color and state ([2]; 75% RH, 30 days): Off-white solid
- Crystal form ([2]; 75% RH, 30 days): Did not change
- Purity (%) ([2]; 75% RH, 30 days): 99.1%
SMILES: C=CC(=O)N1CCN2C(=O)c3cc(F)c(-c4ccc(F)c5sc(N)c(C#N)c45)c4c(Cl)nn(c34)CC[C@H]2C1 [crystal form N]
